Broadly, the Tmax is the time from dosing to the highest level. Usually half-life stands for the time in which the quantity being followed falls by half. A lower half-life goes with rapid decline. As usually defined, the AUC(0-inf) is the area under the concentration-time curve extrapolated to infinity. In general, Cmax refers to the maximum level reached in the sampled fluid or tissue. Broadly, the Vd is a proportionality between amount in the body and measured concentration, not a real space. Read a low Vd as little distribution into tissue. A word on the clearance: it is the volume of plasma or blood freed of the substance per unit of time. A high value points to efficient removal. In general, bioavailability refers to dose-corrected exposure relative to a reference, in per cent.

This is an account of results in patent US20090005395A1 (Solvay Pharmaceuticals, B.V., priority 2007, published 2009).

The subject of one data set is PDE-I. The data set can be described thus: In vitro inhibition of phosphodiesterases (CEREP): PDE-I. The note with it: bovine brain.
Another data set concerns PDE-IV. Kind of data set: In vitro inhibition of phosphodiesterases (CEREP): PDE-IV. Particulars: human U-937 monocytes.
A short description of data set [1]: Plasma and brain concentrations of sildenafil and its N-oxide after i.v. or p.o. administration to mice (LC-MS/MS). Particulars: sildenafil administered i.v. or p.o. The data set is classed as in vivo, male NMRI mice. The procedure:
Sildenafil and its N-oxide were analyzed in mouse plasma and brain samples using a generic bioanalytical method comprising protein precipitation and HPLC with MS/MS detection.
Sample preparation: Proteins in 100 μl plasma were precipitated with acetonitrile, and 5 μl samples of the obtained solution were analyzed. Complete brains were homogenized and centrifuged, and 10 μl samples of the supernatant were analyzed.
Liquid Chromatography-Tandem Mass Spectrometry (LC-MS/MS) was performed using a Sciex API4000 LC-MS/MS. Quantification of the samples was done using extracted calibration samples, treated the same as the study samples in the range of 1-5000 ng/ml and 5.0-5000 ng/brain for plasma and brains samples, respectively. Compound peak area was used for quantification. The calibration curves were fitted to the model y=A+Bx+Cx^2 (y is the peak area of the analyte, x is the nominal calibration level in ng/ml (plasma) or ng/g (brain), A is the intercept, B is the slope and C is the description of the curvature). 1/x^2 weighing was used. LC-MS/MS system performance was monitored using a reference solution injected at standard intervals. The method use for testing was not validated in detail, therefore the reported concentrations were good estimations. The Lower Limit Of Quantification (LLOQ) was established at 1.00 ng/ml and 5.00 ng/brain, for plasma and brain samples, respectively. […]

The target in a further data set is CYP3A4 (Homo sapiens, UniProt P08684). The note with it: cited from earlier work.
The next data set concerns the target CYP2C9 (Homo sapiens, UniProt P11712). The note with it: cited from earlier work.
A short description of data set [2]: Plasma pharmacokinetics of sildenafil and its N-oxide. It is filed as in vivo. Particulars: male, NMRI, mouse, mice, plasma; for AUC: Tend = 7 hrs, read-out: AUC0→end; for AUC(0-inf): Tend = ∞. As for the experimental part: Liquid Chromatography-Tandem Mass Spectrometry (LC-MS/MS) was performed using a Sciex API4000 LC-MS/MS. […] Compound peak area was used for quantification. The calibration curves were fitted to the model y=A+Bx+Cx^2 (y is the peak area of the analyte, x is the nominal calibration level in ng/ml (plasma) or ng/g (brain), A is the intercept, B is the slope and C is the description of the curvature). 1/x^2 weighing was used. LC-MS/MS system performance was monitored using a reference solution injected at standard intervals. […] The Lower Limit Of Quantification (LLOQ) was established at 1.00 ng/ml and 5.00 ng/brain, for plasma and brain samples, respectively. Reversed phase HPLC was performed using gradient elution by a Hypersil BDS C18 100×4.6 mm 3 μm analytical column, with a temperature of 45° C. and a flow of 1.00 ml/min: […]

In another data set the target is PDE-V (Homo sapiens, UniProt O76074). The note with it: cited from earlier work.
The conditions of data set [3]: in vivo; cited from earlier work.

Like-named read-outs stand apart in the source and are kept apart here.

Sequence of CYP3A4 (P08684 whole entry): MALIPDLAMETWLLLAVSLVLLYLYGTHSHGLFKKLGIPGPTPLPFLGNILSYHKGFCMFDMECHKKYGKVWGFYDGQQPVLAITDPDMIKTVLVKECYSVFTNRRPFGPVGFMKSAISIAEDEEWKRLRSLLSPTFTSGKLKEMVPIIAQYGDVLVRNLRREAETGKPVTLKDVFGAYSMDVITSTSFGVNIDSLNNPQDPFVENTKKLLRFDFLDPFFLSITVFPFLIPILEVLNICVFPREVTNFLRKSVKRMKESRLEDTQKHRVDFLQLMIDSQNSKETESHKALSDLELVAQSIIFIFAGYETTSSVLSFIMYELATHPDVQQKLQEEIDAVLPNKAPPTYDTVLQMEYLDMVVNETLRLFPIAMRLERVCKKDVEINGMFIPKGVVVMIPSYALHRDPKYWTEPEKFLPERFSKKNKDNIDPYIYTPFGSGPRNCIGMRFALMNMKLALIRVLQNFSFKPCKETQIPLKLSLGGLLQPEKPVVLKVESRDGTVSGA
Sequence of CYP2C9 (P11712 whole entry): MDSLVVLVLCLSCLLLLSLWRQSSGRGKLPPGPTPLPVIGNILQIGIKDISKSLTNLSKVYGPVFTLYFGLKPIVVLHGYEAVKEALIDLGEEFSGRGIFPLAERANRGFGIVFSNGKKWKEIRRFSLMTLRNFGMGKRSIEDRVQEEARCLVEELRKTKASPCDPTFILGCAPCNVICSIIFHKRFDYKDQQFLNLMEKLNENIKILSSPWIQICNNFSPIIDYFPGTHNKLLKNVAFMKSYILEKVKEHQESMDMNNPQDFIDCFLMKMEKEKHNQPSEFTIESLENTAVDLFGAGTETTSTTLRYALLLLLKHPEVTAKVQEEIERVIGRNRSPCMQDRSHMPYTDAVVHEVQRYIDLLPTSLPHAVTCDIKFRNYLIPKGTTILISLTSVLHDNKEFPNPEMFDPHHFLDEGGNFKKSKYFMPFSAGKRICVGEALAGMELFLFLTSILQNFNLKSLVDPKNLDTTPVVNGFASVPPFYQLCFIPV

Take `CCCc1nn(C)c2c(=O)[nH]c(-c3cc(S(=O)(=O)N4CCN(C)CC4)ccc3OCC)nc12` [Sildenafil, 1-[4-ethoxy-3-(6,7-dihydro-1-methyl-7-oxo-3-propyl-1H-pyrazolo[4,3-d]pyrimidin-5-yl)phenyl-sulfonyl]-4-methylpiperazine, reference compound]: the “pIC50 PDE-I” value in the data set with PDE-I stood at 5.0. Also, the “pIC50 PDE-IV” value with PDE-IV is reported as 4.8. Moreover, in data set [1], the “N-oxide in the brain” value is reported as “no trace can be found at all”. Also, the “clearance route by hepatic microsomal iso-enzyme CYP3A4” value at CYP3A4 is “major route”. Also, the “clearance route by hepatic microsomal iso-enzyme CYP2C9” value at CYP2C9 was “minor route”. Moreover, in data set [2] (iv, i.v. 1 mg/kg), the Tmax worked out at 0 h, the half-life was 1.4 h, the AUC was 232 ng·h/mL and the AUC(0-inf) was 232 ng·h/mL. In data set [2] (iv, i.v. 1 mg/kg), this compound yielded a Vd of 8.9 L/kg and a clearance of 71.8 mL/min/kg. For the same compound, in data set [2] (iv, i.v. 1 mg/kg, extrapolated to T0 (time zero), read-out: Cmax (C0)), the Cmax was 538 ng/mL. For the same compound, the bioavailability in data set [2] (po, 10 mg/kg, i.v.) was 28.9%. In data set [2] (po, p.o. 10 mg/kg), the Tmax worked out at 0.2 h, the half-life is 1.1 h, the AUC came out at 661 ng·h/mL and the AUC(0-inf) came to 670 ng·h/mL. Further, the Cmax in data set [2] (po, p.o. 10 mg/kg, read-out: Cmax) turned out to be 533 ng/mL. Moreover, the “more potent on PDE-V than on PDE-1” value on PDE-V (in vitro, versus PDE-1) is given as > 80 fold. In addition, the “more potent on PDE-V than on PDE-II” value on PDE-V (in vitro, versus PDE-II) is > 700 fold. Further, the “more potent on PDE-V than on PDE-IV” value on PDE-V (in vitro, versus PDE-IV) is on record as > 700 fold. Besides, on PDE-V (in vitro, versus PDE-IX), the “more potent on PDE-V than on PDE-IX” value was > 700 fold. Besides, the “more potent on PDE-V than on PDE-VI” value at PDE-V (in vitro, versus PDE-VI) is given as “about 10 fold”. At PDE-V (in vitro, versus PDE-VII), the “more potent on PDE-V than on PDE-VII” value is reported as > 700 fold. Besides, the “more potent on PDE-V than on PDE-VIII” value at PDE-V (in vitro, versus PDE-VIII) is given as > 700 fold. Further, the “more potent on PDE-V than on PDE-X” value at PDE-V (in vitro, versus PDE-X) was > 700 fold. Besides, at PDE-V (in vitro, versus PDE-XI), the “more potent on PDE-V than on PDE-XI” value is > 700 fold.

In the case of `CCCc1nn(C)c2c(=O)[nH]c(-c3cc(S(=O)(=O)N4CCNCC4)ccc3OCC)nc12` [UK 103,320, 1-[[3-(6,7-dihydro-1-methyl-7-oxo-3-propyl-1H-pyrazolo[4,3-d]pyrimidin-5-yl)-4-ethoxy-phenyl]sulfonyl]-piperazine], in data set [3], the “Plasma concentrations of the metabolite relative to those seen for sildenafil” value is recorded as “approximately 40%”. Also, on PDE-V (of sildenafil), the “in vitro potency for PDE-V relative to the parent drug” value is recorded as “approximately 50%”. For the same compound, the “potency relative to sildenafil” value at PDE-V (reported) is “about half”.
